What all share (assay type): cell-based
Test [1] relates to HUVEC: non-transformed early passage human umbilical vein endothelial cells. Nature of the test: In vitro anti-proliferative activity, BrdU incorporation, HUVEC. To be noted: 50% inhibition of proliferation, BrdU incorporation into DNA. On the procedure:
(§1) Determination of in vitro anti-proliferative activity of substituted estradiol analogs: In vitro anti-proliferative or anti-mitogenic activity was determined using a commercially available cell-based assay in 96-well tissue culture plates with assessment of proliferation by evaluating DNA synthesis through incorporation into DNA of immuno-reactive (BrdU) nucleotides. The cell types used are commercially available (MDA-MB-231: breast cancer; U87-MG: glioblastoma; PC3: prostate cancer; HUVEC: non-transformed early passage human umbilical vein endothelial cells). These assays, and the many assay variations possible to determine in vitro anti-proliferative or anti-mitogenic activity, are well known to those skilled in the art. The concentration which causes 50% inhibition of proliferation (IC50) was estimated from a dose-response curve generally carried out with a range of concentrations from ≧100 microg/mL to ≦0.01 microg/mL.
In general terms: Dividing cells build labelled thymidine or BrdU into new DNA.

The test system of another test is PC3: prostate cancer. As to the kind of experiment: In vitro anti-proliferative activity, BrdU incorporation, PC3. The settings on record: PC3 cells, 50% inhibition of proliferation, BrdU incorporation into DNA. The method, then: as §1
The subject of test [2] is MDA-MB-231: breast cancer. As to the kind of experiment: In vitro anti-proliferative activity, BrdU incorporation, MDA-MB-231. The settings on record: MDA-MB-231 cells, 50% inhibition of proliferation, BrdU incorporation into DNA. The method, then: as §1
For another test, the system named is U87-MG: glioblastoma. Nature of the test: In vitro anti-proliferative activity, BrdU incorporation, U87-MG. To be noted: U87-MG cells, 50% inhibition of proliferation, BrdU incorporation into DNA. On the procedure: as §1

SMILES strings stand for the structures.

These results are taken from US7371741B2, “Estradiol derivatives and pharmaceutical compositions using same” (EntreMed, Inc., priority 2003, dated 2008).

A word on the IC50: it is the concentration that inhibits the measured activity by half. Higher therefore signals lower potency.

In the case of `C=C1CC[C@H]2[C@@H]3CCc4cc(OS(N)(=O)=O)c(OC)cc4[C@H]3CC[C@]12C` [Compound 70, 17-methylene-3-sulfamate-2-methoxyestra-1,3,5(10)-triene], the IC50 turned out to be 580 ± 30 nM in test [1], 910 ± 320 nM with PC3: prostate cancer, 560 ± 20 nM in test [2] and 700 ± 60 nM in the test with U87-MG: glioblastoma.
`CCOc1cc2c(cc1O)CC[C@@H]1[C@@H]2CC[C@]2(C)C(O)CC[C@@H]12` (some centres unmarked) [Compound 2, 2-Ethoxyestra-1,3,5(10)-trien-3,17-diol]: the figures for the IC50 in test [1] (Homo sapiens) and in test [2] (Homo sapiens) were 140 ± 70 nM and 650 ± 230 nM, respectively.
For `COc1cc2c(cc1OS(N)(=O)=O)CC[C@@H]1[C@@H]2CC[C@]2(C)C(=O)CC[C@@H]12` [Compound 19, 3-sulfamate-2-methoxyestra-1,3,5(10)-trien-17-one], the half-maximal inhibitory concentration (IC50) in test [1] amounted to 180 ± 40 nM; in the test with PC3: prostate cancer it was 510 ± 240 nM; in test [2], 600 ± 430 nM; with U87-MG: glioblastoma, 800 ± 230 nM.
The like results for `COc1cc2c(cc1NC=O)CC[C@@H]1[C@@H]2CC[C@]2(C)C(C)CC[C@@H]12` (some centres unmarked) [Compound 136, 3-formamide-17-methyl-2-methoxyestra-1,3,5(10)-triene] were, in that order, 590 nM, 700 ± 100 nM, 610 nM and 640 ± 10 nM.
In the same order, the values of `COc1cc2c(cc1NC=O)CC[C@@H]1[C@@H]2CC[C@]2(C)C(=O)CC[C@@H]12` [Compound 43A, 3-formamide-2-methoxyestra-1,3,5(10)-triene-17-one] are 530 ± 220 nM, 610 ± 270 nM, 1220 ± 600 nM and 940 ± 90 nM.
In the same order, the values of `COc1cc2c(cc1OS(N)(=O)=O)CC[C@@H]1[C@@H]2CC[C@]2(C)CCC[C@@H]12` [Compound 46, 3-sulfamate-2-methoxyestra-1,3,5(10)-triene] are 210 ± 150 nM, 380 ± 210 nM, 380 ± 150 nM and 720 ± 40 nM.
As to `C=C1CC[C@H]2[C@@H]3CCc4cc(O)c(OC)cc4[C@H]3CC[C@]12C` [Compound 10, 2-methoxy-17(20)-methyleneestra-1,3,5(10)-triene-3-ol], the IC50 worked out at 260 ± 230 nM in test [1] and 580 ± 310 nM in test [2].
With `COc1cc2c(cc1C(N)=O)CC[C@@H]1[C@@H]2CC[C@]2(C)C(=O)CC[C@@H]12` [Compound 31, 2-methoxy-3-carboxamideestra-1,3,5(10)-triene-17-one], the IC50 in test [1] came out at 790 ± 200 nM; with PC3: prostate cancer, 700 ± 30 nM; in test [2] it was 700 ± 120 nM; in the test with U87-MG: glioblastoma it was 1070 ± 150 nM.
In the case of `COc1cc2c(cc1O)CC[C@@H]1[C@@H]2CC[C@]2(C)[C@@H](C)CC[C@@H]12` [Compound 16, 2-methoxy-17β-methylestra-1,3,5(10)-triene-3-ol], the IC50 was found to be 2400 ± 450 nM in test [1] (Homo sapiens); 6460 ± 2310 nM with PC3: prostate cancer (Homo sapiens, PC-3); 3330 ± 230 nM in test [2] (Homo sapiens); 9390 ± 430 nM with U87-MG: glioblastoma (Homo sapiens, U-87 MG).
In the same order, the values of `COc1cc2c(cc1O)CC[C@@H]1[C@@H]2CC[C@]2(C)C(=O)CC[C@@H]12` [Compound 4, 2-methoxyestra-1,3,5(10)-trien-3-ol-17-one, reference compound] are 12600 nM, 13700 nM, 11700 nM and 10500 nM.
On to `C=Cc1cc2c(cc1OC)[C@H]1CC[C@]3(C)[C@@H](O)CC[C@H]3[C@@H]1CC2` [Compound 25a, 2-methoxy-3-(vinyl)estra-1,3,5(10)-triene-17β-ol], for which the IC50 came to 1960 ± 50 nM in test [1] (Homo sapiens); 6340 ± 80 nM with PC3: prostate cancer (Homo sapiens, PC-3); 8930 ± 610 nM in test [2] (Homo sapiens); 7810 ± 1300 nM in the test with U87-MG: glioblastoma (Homo sapiens, U-87 MG).
In the case of `COc1cc2c(cc1OS(N)(=O)=O)CC[C@@H]1[C@@H]2CC[C@]2(C)C(C)CC[C@@H]12` (some centres unmarked) [Compound 118, 3-sulfamate-17-methyl-2-methoxyestra-1,3,5(10)-triene], the IC50 in test [1] came to 590 ± 100 nM; in the test with PC3: prostate cancer, 820 ± 60 nM; in test [2] it was 660 ± 100 nM; with U87-MG: glioblastoma, 640 ± 10 nM.
In the same order, the values of `C=C1CC[C@H]2[C@@H]3CCc4cc(NC=O)c(OCC)cc4[C@H]3CC[C@]12C` [Compound 89, 3-formamide-17-methylene-2-ethoxyestra-1,3,5(10)-triene] are 2100 ± 20 nM, 1590 ± 190 nM, 2410 ± 130 nM and 7730 nM.
With `C=Cc1cc2c(cc1OC)[C@H]1CC[C@]3(C)CCC[C@H]3[C@@H]1CC2` [Compound 52, 3-Vinyl-2-methoxyestra-1,3,5(10)-triene], the IC50 in test [1] (Homo sapiens) came out at 580 ± 40 nM; with PC3: prostate cancer (Homo sapiens, PC-3) it was 2120 ± 640 nM; in test [2] (Homo sapiens), 1860 ± 220 nM; in the test with U87-MG: glioblastoma (Homo sapiens, U-87 MG), 3140 ± 520 nM.
Consider `COc1cc2c(cc1NC=O)CC[C@@H]1[C@@H]2CC[C@]2(C)CCC[C@@H]12` [Compound 64, 3-formamide-2-methoxyestra-1,3,5(10)-triene], for which the IC50 is 5800 ± 730 nM in test [1], 9240 ± 590 nM in the test with PC3: prostate cancer, 8290 ± 1640 nM in test [2] and 23200 ± 2000 nM in the test with U87-MG: glioblastoma.
The like results for `CC=C1CC[C@H]2[C@@H]3CCc4cc(NC=O)c(OC)cc4[C@H]3CC[C@]12C` [Compound 112, 3-formamide-17-ethylene-2-methoxyestra-1,3,5(10)-triene] were, in that order, 580 nM, 740 ± 10 nM, 560 ± 20 nM and 770 ± 60 nM.
For the compound `COc1cc2c(cc1F)CC[C@@H]1[C@@H]2CC[C@]2(C)C(=O)CC[C@@H]12` [Compound 40, 3-fluoro-2-methoxyestra-1,3,5(10)-trien-17-one], the half-inhibitory concentration (IC50) in test [1] (Homo sapiens) is 2100 ± 230 nM; in the test with PC3: prostate cancer (Homo sapiens, PC-3), 9260 ± 730 nM; in test [2] (Homo sapiens) it was 2940 ± 800 nM; in the test on U87-MG: glioblastoma (Homo sapiens, U-87 MG) it was 26000 ± 3380 nM.
In the case of `COc1cc2c(cc1O)CC[C@@H]1[C@@H]2CC[C@]2(C)CCC[C@@H]12` [Compound 7, 2-methoxyestra-1,3,5(10)-triene-3-ol], the IC50 came to 1320 ± 560 nM in test [1] (Homo sapiens); 8490 ± 2490 nM in the test with PC3: prostate cancer (Homo sapiens, PC-3); 2200 ± 520 nM in test [2] (Homo sapiens); 7350 ± 430 nM with U87-MG: glioblastoma (Homo sapiens, U-87 MG).
With `COc1cc2c(cc1C(=O)O)CC[C@@H]1[C@@H]2CC[C@]2(C)C(=O)CC[C@@H]12` [Compound 28, 2-methoxy-3-(carboxylic acid)estra-1,3,5(10)-triene-17-one], the IC50 (in test [1]; in the test with PC3: prostate cancer; in test [2]; in the test on U87-MG: glioblastoma) was greater than 100000 nM throughout.
On to `C=Cc1cc2c(cc1OC)[C@H]1CC[C@]3(C)C(=O)CC[C@H]3[C@@H]1CC2` [Compound 25, 2-methoxy-3-(vinyl)estra-1,3,5(10)-triene-17-one], for which the IC50 in test [1] (Homo sapiens) worked out at 580 ± 10 nM; with PC3: prostate cancer (Homo sapiens, PC-3), 1430 ± 400 nM; in test [2] (Homo sapiens) it was 2570 ± 290 nM; in the test with U87-MG: glioblastoma (Homo sapiens, U-87 MG) it was 2200 ± 60 nM.
`COc1cc2c(cc1N)CC[C@@H]1[C@@H]2CC[C@]2(C)C(=O)CC[C@@H]12` [Compound 34, 3-amino-2-methoxyestra-1,3,5(10)-trien-17-one]: the IC50 in test [1] (Homo sapiens) is 23400 ± 4140 nM; in the test on PC3: prostate cancer (Homo sapiens, PC-3), greater than 100000 nM; in test [2] (Homo sapiens) it was 46900 ± 8150 nM; in the test with U87-MG: glioblastoma (Homo sapiens, U-87 MG) it was 81500 ± 20400 nM.
Take `CC#Cc1cc2c(cc1O)CCC1C2CC[C@@]2(C)C1CC[C@@H]2O` (some centres unmarked) [Compound 3]: the IC50 came out at 520 ± 140 nM in test [1] (Homo sapiens); 2220 ± 130 nM in the test with PC3: prostate cancer (Homo sapiens, PC-3); 3990 ± 1120 nM in test [2] (Homo sapiens); 2680 ± 220 nM in the test with U87-MG: glioblastoma (Homo sapiens, U-87 MG).
For the compound `CCOc1cc2c(cc1OS(N)(=O)=O)CC[C@@H]1[C@@H]2CC[C@]2(C)C(C)CC[C@@H]12` (some centres unmarked) [Compound 119, 3-sulfamate-17-methyl-2-ethoxyestra-1,3,5(10)-triene], the IC50 in test [1] came to 910 ± 90 nM; in the test on PC3: prostate cancer it was 830 nM; in test [2], 1550 ± 390 nM; in the test on U87-MG: glioblastoma, 6410 nM.
`C=C1CC[C@H]2[C@@H]3CCc4cc(N)c(OC)cc4[C@H]3CC[C@]12C` [Compound 85, 3-amino-17-methylene-2-methoxyestra-1,3,5(10)-triene]: the IC50 in test [1] (Homo sapiens) is 1000 ± 190 nM; in the test with PC3: prostate cancer (Homo sapiens, PC-3), 2400 ± 390 nM; in test [2] (Homo sapiens) it was 2110 ± 570 nM; with U87-MG: glioblastoma (Homo sapiens, U-87 MG), 5510 ± 460 nM.
In the same order, the values of `C=C1CC[C@H]2[C@@H]3CCc4cc(C(N)=O)c(OC)cc4[C@H]3CC[C@]12C` [Compound 82, 2-Methoxy-17-methyleneestra-1,3,5(10)-triene-3-carboxamide] are 120 ± 60 nM, 250 ± 10 nM, 190 ± 80 nM and 250 ± 20 nM.
Take `C=C1CC[C@H]2[C@@H]3CCc4cc(OS(=O)(=O)C(F)(F)F)c(OC)cc4[C@H]3CC[C@]12C` [Compound 73, 3-triflic-17-methylene-2-methoxyestra-1,3,5(10)-triene]: the IC50 (in test [1]; with PC3: prostate cancer; in test [2]; with U87-MG: glioblastoma) was greater than 100000 nM in each case.
As for `CC=C1CC[C@H]2[C@@H]3CCc4cc(OS(N)(=O)=O)c(OC)cc4[C@H]3CC[C@]12C` [Compound 94, 3-sulfamate-17-ethylene-2-methoxyestra-1,3,5(10)-triene], the IC50 in test [1] is 590 nM; with PC3: prostate cancer, 660 ± 50 nM; in test [2] it was 580 ± 20 nM; with U87-MG: glioblastoma, 640 ± 90 nM.
